Data published in PMC5218480 (PLoS ONE, 2017).

Tested on: MV-4-11 cells
Experiment: Gene expression microarray analysis (Affymetrix PrimeView) and GSEA
Type: cell-based, human
Design: RFU PODN (11730768_x_at) / Fold change /veh PODN (11730768_x_at) / RFU LINC00158 (11744669_a_at) / Fold change /veh LINC00158 (11744669_a_at) / RFU DUSP10 (11751237_a_at) / Fold change /veh DUSP10 (11751237_a_at) / RFU ID3 (11757404_x_at) / Fold change /veh ID3 (11757404_x_at) / RFU PLEKHG5 (11737974_s_at) / Fold change /veh PLEKHG5 (11737974_s_at) / RFU LRRC4B (11730491_at) / Fold change /veh LRRC4B (11730491_at) / RFU GIMAP4 (11747438_a_at) / Fold change /veh GIMAP4 (11747438_a_at) / RFU KRT8 (11758183_x_at) / Fold change /veh KRT8 (11758183_x_at) / RFU CNN1 (11734310_a_at) / Fold change /veh CNN1 (11734310_a_at) / RFU VPS37D (11726825_at) / Fold change /veh VPS37D (11726825_at) / RFU C10orf10 (11716522_x_at) / Fold change /veh C10orf10 (11716522_x_at) / RFU KIR2DL2 /// KIR2DL4 /// KIR2DL5A /// KIR2DL5B /// KIR2DS1 /// KIR2DS2 /// KIR2DS3 /// KIR2DS4 /// KIR3DL3 /// KIR3DL3 /// KIR3DS1 (11738374_at) / Fold change /veh KIR2DL2 /// KIR2DL4 /// KIR2DL5A /// KIR2DL5B /// KIR2DS1 /// KIR2DS2 /// KIR2DS3 /// KIR2DS4 /// KIR3DL3 /// KIR3DL3 /// KIR3DS1 (11738374_at) / RFU C1QL1 (11718748_at) / Fold change /veh C1QL1 (11718748_at) / RFU TMPRSS4 (11747572_a_at) / Fold change /veh TMPRSS4 (11747572_a_at) / RFU HAMP (11756126_x_at) / Fold change /veh HAMP (11756126_x_at) / RFU RNFT2 (11725882_a_at) / Fold change /veh RNFT2 (11725882_a_at) / RFU NR4A2 (11747474_a_at) / Fold change /veh NR4A2 (11747474_a_at) / RFU ABCC12 (11746883_a_at) / Fold change /veh ABCC12 (11746883_a_at) / RFU TMEM136 (11760407_x_at) / Fold change /veh TMEM136 (11760407_x_at) / RFU CLDN22 /// WWC2 (11732394_at) / Fold change /veh CLDN22 /// WWC2 (11732394_at) / RFU HLA-DPB1 (11760878_x_at) / Fold change /veh HLA-DPB1 (11760878_x_at) / RFU SPINT1 (11716480_a_at) / Fold change /veh SPINT1 (11716480_a_at) / RFU GAP43 (11754022_s_at) / Fold change /veh GAP43 (11754022_s_at) / RFU A4GNT (11735810_at) / Fold change /veh A4GNT (11735810_at) / RFU PRB3 (11715151_x_at) / Fold change /veh PRB3 (11715151_x_at) / RFU TUBB4B (11761932_at) / Fold change /veh TUBB4B (11761932_at) / RFU CAPN14 (11732068_a_at) / Fold change /veh CAPN14 (11732068_a_at) / RFU TMCC2 (11721928_a_at) / Fold change /veh TMCC2 (11721928_a_at) / RFU IRGQ (11745062_a_at) / Fold change /veh IRGQ (11745062_a_at) / RFU FAM174B (11720279_a_at) / Fold change /veh FAM174B (11720279_a_at) / RFU TMPRSS4 (11748680_a_at) / Fold change /veh TMPRSS4 (11748680_a_at) / RFU FAM212B (11763350_a_at) / Fold change /veh FAM212B (11763350_a_at) / RFU PLEKHG5 (11743358_a_at) / Fold change /veh PLEKHG5 (11743358_a_at) / RFU ZSCAN30 (11745921_a_at) / Fold change /veh ZSCAN30 (11745921_a_at) / RFU CMKLR1 (11741424_a_at) / Fold change /veh CMKLR1 (11741424_a_at) / RFU LOC101060620 /// MAPK8IP1 (11723275_at) / Fold change /veh LOC101060620 /// MAPK8IP1 (11723275_at) / RFU SPTSSB (11747773_x_at) / Fold change /veh SPTSSB (11747773_x_at) / RFU PRSS12 (11739890_at) / Fold change /veh PRSS12 (11739890_at) / RFU BIN1 (11741810_x_at) / Fold change /veh BIN1 (11741810_x_at) / RFU WNT11 (11732464_a_at) / Fold change /veh WNT11 (11732464_a_at) / RFU C10orf10 (11716521_a_at) / Fold change /veh C10orf10 (11716521_a_at) / RFU C5orf56 (11738089_at) / Fold change /veh C5orf56 (11738089_at) / RFU CYB561 (11721691_x_at) / Fold change /veh CYB561 (11721691_x_at) / RFU ANKRD19P (11752326_a_at) / Fold change /veh ANKRD19P (11752326_a_at) / RFU OR2T12 /// OR2T33 /// OR2T8 (11738714_s_at) / Fold change /veh OR2T12 /// OR2T33 /// OR2T8 (11738714_s_at) / RFU VCAN (11748164_a_at) / Fold change /veh VCAN (11748164_a_at) / RFU JSRP1 (11732532_at) / Fold change /veh JSRP1 (11732532_at) / RFU KRTAP10-11 (11738290_x_at) / Fold change /veh KRTAP10-11 (11738290_x_at) / RFU MYO3A (11730013_a_at) / Fold change /veh MYO3A (11730013_a_at) / RFU EBF3 (11725865_a_at) / Fold change /veh EBF3 (11725865_a_at) / RFU CAMK2N1 (11719241_x_at) / Fold change /veh CAMK2N1 (11719241_x_at) / RFU C5orf56 (11738088_a_at) / Fold change /veh C5orf56 (11738088_a_at) / RFU OLFML3 (11715873_a_at) / Fold change /veh OLFML3 (11715873_a_at) / RFU LOC100653217 /// NTM (11731650_a_at) / Fold change /veh LOC100653217 /// NTM (11731650_a_at) / RFU MAPK11 (11762145_a_at) / Fold change /veh MAPK11 (11762145_a_at) / RFU FIZ1 (11724087_x_at) / Fold change /veh FIZ1 (11724087_x_at) / RFU OASL (11726364_x_at) / Fold change /veh OASL (11726364_x_at) / RFU SOX15 (11748057_x_at) / Fold change /veh SOX15 (11748057_x_at) / RFU CD79A (11719716_a_at) / Fold change /veh CD79A (11719716_a_at) / RFU HIST1H1D (11736915_at) / Fold change /veh HIST1H1D (11736915_at) / RFU CASKIN2 (11723855_a_at) / Fold change /veh CASKIN2 (11723855_a_at) / RFU LOC730098 (11760151_x_at) / Fold change /veh LOC730098 (11760151_x_at) / RFU OR4N2 (11742367_at) / Fold change /veh OR4N2 (11742367_at) / RFU PRRT2 (11749266_a_at) / Fold change /veh PRRT2 (11749266_a_at) / RFU SNX32 (11753110_a_at) / Fold change /veh SNX32 (11753110_a_at) / RFU CDHR5 (11726645_a_at) / Fold change /veh CDHR5 (11726645_a_at) / RFU RCAN1 (11760418_a_at) / Fold change /veh RCAN1 (11760418_a_at) / RFU FAM167A (11723789_a_at) / Fold change /veh FAM167A (11723789_a_at) / RFU FAM26E (11764081_at) / Fold change /veh FAM26E (11764081_at) / RFU ISYNA1 (11749810_s_at) / Fold change /veh ISYNA1 (11749810_s_at) / RFU ACY1 (11761880_at) / Fold change /veh ACY1 (11761880_at) / RFU 11764098_at / Fold change /veh 11764098_at / RFU SAMD14 (11745864_x_at) / Fold change /veh SAMD14 (11745864_x_at) / RFU NPB (11741838_a_at) / Fold change /veh NPB (11741838_a_at) / RFU TMPRSS6 (11731388_a_at) / Fold change /veh TMPRSS6 (11731388_a_at) / RFU KRTAP10-2 (11738614_at) / Fold change /veh KRTAP10-2 (11738614_at) / RFU ARHGAP8 /// PRR5-ARHGAP8 (11727945_x_at) / Fold change /veh ARHGAP8 /// PRR5-ARHGAP8 (11727945_x_at) / RFU KRTAP5-7 /// NADSYN1 (11734609_at) / Fold change /veh KRTAP5-7 /// NADSYN1 (11734609_at) / RFU RASL12 (11751679_a_at) / Fold change /veh RASL12 (11751679_a_at) / RFU CDKN2B (11736163_a_at) / Fold change /veh CDKN2B (11736163_a_at) / RFU PRF1 (11729649_at) / Fold change /veh PRF1 (11729649_at) / RFU, ZNF638 /// ZNF638-IT1 / Fold change vs veh, ZNF638 /// ZNF638-IT1 / RFU, PANK3 / Fold change vs veh, PANK3 / RFU, SH3YL1 / Fold change vs veh, SH3YL1 / RFU, ZEB2 / Fold change vs veh, ZEB2 / RFU, NRIP1 / Fold change vs veh, NRIP1 / RFU, PTTG1IP / Fold change vs veh, PTTG1IP / RFU, CAPN2 / Fold change vs veh, CAPN2 / RFU, MED14 / Fold change vs veh, MED14 / RFU, SNORA58 / Fold change vs veh, SNORA58 / RFU, C1orf63 / Fold change vs veh, C1orf63 / RFU, LRRFIP1 / Fold change vs veh, LRRFIP1 / RFU, NDUFAF7 / Fold change vs veh, NDUFAF7 / RFU, SLC12A2 / Fold change vs veh, SLC12A2 / RFU, IBTK / Fold change vs veh, IBTK / RFU, ESF1 / Fold change vs veh, ESF1 / Fold change vs veh, TMEM50B / RFU, TAOK1 / Fold change vs veh, TAOK1 / RFU, ACBD3 / Fold change vs veh, ACBD3 / RFU, TMA16 / Fold change vs veh, TMA16 / RFU, RWDD3 / Fold change vs veh, RWDD3 / RFU, BCAT1 / Fold change vs veh, BCAT1 / RFU, EDEM3 / Fold change vs veh, EDEM3 / RFU, TMEM33 / Fold change vs veh, TMEM33 / RFU, WDR75 / Fold change vs veh, WDR75 / RFU, AHCTF1 / Fold change vs veh, AHCTF1 / RFU, TFRC / Fold change vs veh, TFRC / RFU, ZDHHC17 / Fold change vs veh, ZDHHC17 / RFU, NOM1 / Fold change vs veh, NOM1 / RFU, ARL8B / Fold change vs veh, ARL8B / RFU, ZBTB11 / Fold change vs veh, ZBTB11 / RFU, TAMM41 / Fold change vs veh, TAMM41 / RFU, KIAA1704 /// LOC100996395 / Fold change vs veh, KIAA1704 /// LOC100996395 / RFU, ING1 / Fold change vs veh, ING1 / RFU, TRMT61B / Fold change vs veh, TRMT61B / RFU, FUBP3 / Fold change vs veh, FUBP3 / RFU, TP53 / Fold change vs veh, TP53 / RFU, TNKS2 / Fold change vs veh, TNKS2 / RFU, ZFP14 / Fold change vs veh, ZFP14 / RFU, ACTR2 / Fold change vs veh, ACTR2 / RFU, PPP3R1 / Fold change vs veh, PPP3R1 / RFU, PIK3R1 / Fold change vs veh, PIK3R1 / RFU, HNRNPA1 / Fold change vs veh, HNRNPA1 / RFU, RNF170 / Fold change vs veh, RNF170 / RFU, ZNF28 / Fold change vs veh, ZNF28 / RFU, RNGTT / Fold change vs veh, RNGTT / RFU, OGT / Fold change vs veh, OGT / RFU, BRD1 / Fold change vs veh, BRD1 / RFU, MARS / Fold change vs veh, MARS / RFU, ZNF655 / Fold change vs veh, ZNF655 / RFU, FAHD1 / Fold change vs veh, FAHD1 / RFU, BDP1 / Fold change vs veh, BDP1 / RFU, LRRCC1 / Fold change vs veh, LRRCC1 / RFU, ARID1A / Fold change vs veh, ARID1A / RFU, ZNF146 / Fold change vs veh, ZNF146 / RFU, ZNF330 / Fold change vs veh, ZNF330 / RFU, GPN3 / Fold change vs veh, GPN3 / RFU, C9orf123 / Fold change vs veh, C9orf123 / RFU, N4BP2L2 / Fold change vs veh, N4BP2L2 / RFU, ARFIP1 / Fold change vs veh, ARFIP1 / RFU, FAM179B / Fold change vs veh, FAM179B / RFU, BCL10 / Fold change vs veh, BCL10 / RFU, UHRF1BP1L / Fold change vs veh, UHRF1BP1L / RFU, BET1 / Fold change vs veh, BET1 / RFU, CNOT2 / Fold change vs veh, CNOT2 / RFU, ZNF268 / Fold change vs veh, ZNF268 / Fold change vs veh, ZNF507 / RFU, DGCR2 / Fold change vs veh, DGCR2 / RFU, WDSUB1 / Fold change vs veh, WDSUB1 / Fold change vs veh, HSP90B1 /// MIR3652 / RFU, ADSS / Fold change vs veh, ADSS / RFU, GK / Fold change vs veh, GK / RFU, ZNF148 / Fold change vs veh, ZNF148 / RFU, TAF9 / Fold change vs veh, TAF9 / RFU, SLC1A5 / Fold change vs veh, SLC1A5 / RFU, SLMO2 / Fold change vs veh, SLMO2 / RFU, ABCC4 / Fold change vs veh, ABCC4 / RFU, LOC101060439 /// RAP1B / Fold change vs veh, LOC101060439 /// RAP1B / RFU, RFX7 / Fold change vs veh, RFX7 / RFU, GTPBP10 / Fold change vs veh, GTPBP10 / RFU, CNEP1R1 / Fold change vs veh, CNEP1R1 / RFU, BIVM-ERCC5 /// ERCC5 / Fold change vs veh, BIVM-ERCC5 /// ERCC5 / RFU, ILF3 / Fold change vs veh, ILF3 / RFU 11762660_at / Fold change /veh 11762660_at / RFU VCAN (11757783_s_at) / Fold change /veh VCAN (11757783_s_at) / RFU DDX43 (11728927_at) / Fold change /veh DDX43 (11728927_at) / RFU KRT8 (11758188_x_at) / Fold change /veh KRT8 (11758188_x_at) / RFU NKD1 (11759106_at) / Fold change /veh NKD1 (11759106_at) / RFU SRD5A1 (11742802_a_at) / Fold change /veh SRD5A1 (11742802_a_at) / RFU TPSAB1 /// TPSB2 (11721975_s_at) / Fold change /veh TPSAB1 /// TPSB2 (11721975_s_at) / RFU GSTM3 (11746129_a_at) / Fold change /veh GSTM3 (11746129_a_at) / RFU IL23R (11737362_x_at) / Fold change /veh IL23R (11737362_x_at) / RFU TMEM51 (11727254_a_at) / Fold change /veh TMEM51 (11727254_a_at) / RFU PIWIL2 (11732686_x_at) / Fold change /veh PIWIL2 (11732686_x_at) / RFU ORM1 (11744905_x_at) / Fold change /veh ORM1 (11744905_x_at) / RFU CCDC152 (11743942_at) / Fold change /veh CCDC152 (11743942_at) / RFU ECM1 (11717891_a_at) / Fold change /veh ECM1 (11717891_a_at) / RFU IL23R (11748794_a_at) / Fold change /veh IL23R (11748794_a_at) / RFU TNFAIP8L3 (11732012_x_at) / Fold change /veh TNFAIP8L3 (11732012_x_at) / RFU MBOAT4 (11741988_at) / Fold change /veh MBOAT4 (11741988_at) / RFU 11764193_at / Fold change /veh 11764193_at / RFU TMEM53 (11763286_at) / Fold change /veh TMEM53 (11763286_at) / RFU MAGEB2 (11727129_at) / Fold change /veh MAGEB2 (11727129_at) / RFU TMEM200A (11744735_a_at) / Fold change /veh TMEM200A (11744735_a_at) / RFU CCDC152 (11751479_a_at) / Fold change /veh CCDC152 (11751479_a_at) / RFU FAM211A (11726209_a_at) / Fold change /veh FAM211A (11726209_a_at) / RFU RGS16 (11746705_a_at) / Fold change /veh RGS16 (11746705_a_at) / RFU VCAN (11755009_s_at) / Fold change /veh VCAN (11755009_s_at) / RFU RHOB (11743442_s_at) / Fold change /veh RHOB (11743442_s_at) / RFU RGS16 (11720943_a_at) / Fold change /veh RGS16 (11720943_a_at) / RFU RGS16 (11720944_at) / Fold change /veh RGS16 (11720944_at) / RFU, VPS4B / Fold change vs veh, VPS4B / RFU, CREB1 / Fold change vs veh, CREB1 / RFU, DNAJC13 / Fold change vs veh, DNAJC13 / RFU, GNAQ / Fold change vs veh, GNAQ / RFU, CDK5R1 / Fold change vs veh, CDK5R1 / RFU, ZRANB3 / Fold change vs veh, ZRANB3 / RFU, CUL4A / Fold change vs veh, CUL4A / RFU, CCNY / Fold change vs veh, CCNY / RFU, UFL1 / Fold change vs veh, UFL1 / RFU, COG3 / Fold change vs veh, COG3 / RFU, DIAPH2 / Fold change vs veh, DIAPH2 / RFU, SKA2 / Fold change vs veh, SKA2 / RFU, AFF3 / Fold change vs veh, AFF3 / RFU, LMF1 / Fold change vs veh, LMF1 / RFU, IPO11 / Fold change vs veh, IPO11 / RFU, DFFB / Fold change vs veh, DFFB / RFU, FOXP1 / Fold change vs veh, FOXP1 / RFU, CARD8 / Fold change vs veh, CARD8 / RFU, STRN3 / Fold change vs veh, STRN3 / RFU, ADK / Fold change vs veh, ADK / RFU, RASSF2 / Fold change vs veh, RASSF2 / RFU, WIPF1 / Fold change vs veh, WIPF1 / RFU, LARP1B / Fold change vs veh, LARP1B / RFU, RASA1 / Fold change vs veh, RASA1 / RFU, RB1 / Fold change vs veh, RB1 / RFU, PPFIA1 / Fold change vs veh, PPFIA1 / RFU, MAT2A / Fold change vs veh, MAT2A / RFU, CCT5 / Fold change vs veh, CCT5 / RFU, WDR92 / Fold change vs veh, WDR92 / RFU, CUX1 / Fold change vs veh, CUX1 / RFU, TTC7A / Fold change vs veh, TTC7A / RFU, TMEM135 / Fold change vs veh, TMEM135 / RFU, DEPTOR / Fold change vs veh, DEPTOR / RFU, CPM / Fold change vs veh, CPM / RFU, DNAJB6 / Fold change vs veh, DNAJB6 / RFU, CACNA2D3 / Fold change vs veh, CACNA2D3 / RFU, DTX4 / Fold change vs veh, DTX4 / RFU, TFCP2 / Fold change vs veh, TFCP2 / RFU, GMCL1 /// GMCL1P1 / Fold change vs veh, GMCL1 /// GMCL1P1 / RFU, AEBP2 / Fold change vs veh, AEBP2 / RFU, SNHG1 /// SNORD22 /// SNORD25 /// SNORD26 /// SNORD27 /// SNORD28 /// SNORD29 /// SNORD31 / Fold change vs veh, SNHG1 /// SNORD22 /// SNORD25 /// SNORD26 /// SNORD27 /// SNORD28 /// SNORD29 /// SNORD31 / Fold change (Aza/veh), C12orf56 (ProbeSet 11735607_a_at) / Fold change (ACY-1035/veh), C12orf56 (ProbeSet 11735607_a_at) / Fold change (Aza/veh), FGFR1OP (ProbeSet 11751329_s_at) / Fold change (ACY-1035/veh), FGFR1OP (ProbeSet 11751329_s_at) / Fold change (Aza/veh), VPS36 (ProbeSet 11739960_a_at) / Fold change (ACY-1035/veh), VPS36 (ProbeSet 11739960_a_at) / RFU SYPL1 (11715823_x_at) / Fold change /veh SYPL1 (11715823_x_at) / RFU IGFBP7 (11715501_s_at) / Fold change /veh IGFBP7 (11715501_s_at) / RFU REEP3 (11722064_at) / Fold change /veh REEP3 (11722064_at) / RFU IGLL1 (11728026_x_at) / Fold change /veh IGLL1 (11728026_x_at): dose or concentration left out as unconfirmed
Conditions: MV-4-11 cells, 48 hours

Nc1ncn([C@@H]2O[C@H](CO)[C@@H](O)[C@H]2O)c(=O)n1 [azacitidine]
Fold change /veh ID3 (11757404_x_at): 1.09
